SMILES | melting point [°C]
COC(=O)CC(C#Cc1cccc(-c2nc(C)no2)c1)c1ccc(OC)c(OC2CCCC2)c1 (racemic) | 66 to 68.5
Cc1cc(C)cc(N(CCO)Cc2ccc3nc(NCCCN4CCOCC4)n(Cc4nc(C)c(C)nc4C)c3c2)c1 | 140
COCCOc1cc(N)c([N+](=O)[O-])cc1I | 121 to 122
NC(=O)C1c2ccccc2SN1CCN1CCN(c2nsc3ccccc23)CC1 (stereo unspecified) | 160 to 163
CCn1cnc2c(Nc3ccccc3)nc(Cl)nc21 | 158
COC(=O)c1ccc(OCC2CC(=O)N(c3ccc(OCCO)cc3)C2)cc1 (stereo unspecified) | 129 to 131
Cc1cc(OCCCC(=O)N(CCCCO)C2CCCCC2)cc(C=O)c1[N+](=O)[O-] | 72 to 73
CC(C)C(=O)Nc1ccc2ncn3c(=O)c(C(=O)O)cnc3c2c1 | 312 to 314
O=C(Cl)c1cc(Br)c(C(=O)Cl)cc1Br | 80 to 82
COc1c(C(=O)OCc2ccccc2)nc(-c2ccc(Cl)c(OC)c2F)c(F)c1N | 119
CC(C)(OCc1n[nH]c2ccccc12)C(=O)O | 135 to 137
COc1ccc2nc(Cl)c(C=NO)cc2c1 | 195
COC(=O)C1C(=O)Nc2cccc(C(F)(F)F)c2CC1c1ccccc1OC (stereo unspecified) | 214 to 216
COc1ccc(Nc2cc(-c3ccccc3)nc(Nc3ccc(OC)c(Cl)c3)n2)cc1Cl | 250 to 254
Cn1c(C=[N+](C)[O-])cnc1[N+](=O)[O-] | 208 to 209
CC(C)(C)SC[C@H](NC(=O)C(CS)Cc1ccccc1)C(=O)O (stereo partly specified) | 68 to 75
COc1c2c(c(OC)c(OC)c1OC)CC(C(=O)O)(c1ccc(OCCCC(=O)O)cc1)C2 | 148 to 150
Cn1c(COc2ccc(CC3SC(=O)NC3=O)cc2)nc2ccc(Oc3cccc(NC(=O)Nc4ccc5c(c4)OCO5)c3)cc21 (stereo unspecified) | 179 to 182
Cc1cc(Cl)c(Nc2ccc(C)cc2CC(=O)O)c(Cl)c1 | 179 to 182
COCc1cnc2c([N+](=O)[O-])ccc(C)c2c1Cl | 120 to 124
Nc1nc2c(s1)CCN(CC=Cc1cccc(OCc3ccccc3)c1)CC2 | 78 to 80
CN1CCC(Cc2nc3ccccc3n2Cc2ccc(CO)o2)CC1 | 158
O=C(NO)c1ccc(CNC(=O)c2[nH]c(-c3ccc(F)cc3)cc2-c2ccc(F)cc2)cc1 | 219 to 220
O=C(OCN1C(=O)c2ccccc2S1(=O)=O)c1ccncc1 | 145 to 146
COCCNc1nc2c(N)nc3ccccc3c2n1CC(C)(C)O | 176 to 178
CCC1Cc2cc(OC)ccc2C2CCC3(C)C(=O)CC(C)C3C12 (stereo unspecified) | 120 to 122

SMILES | melting point [°C]
O=C(c1ccc(F)cc1O)C1CC1 | 58
CCc1nnc2c(Cl)nc3ccccc3n12 | 158 to 160
OCC1Cc2c(c(Cl)cc3c(-c4ccccc4F)noc23)O1 (stereo unspecified) | 136 to 139
CC(C)(C)Oc1ccc(OC(=O)N2CCOCC2)cc1 | 129 to 130
COCCn1cc(C(=O)NCc2ccc(Cl)cc2)c(=O)c2cc(CN(C)C[C@@H](O)c3ccco3)sc21 | 121 to 122
CCCCC#Cc1ccc(-c2cc(C(F)(F)F)nn2-c2ccc(S(C)(=O)=O)cc2)cc1 | 96 to 98
CCCc1nc(C=Cc2ccccc2)c(C(=O)O)n1Cc1cc2c(cc1Cl)OCO2 | 230
CNC(=O)C(Cc1ccc(OC)cc1)NC(=O)C(CC(C)C)C(CC(=O)N1CCN(C)CC1)SC(C)=O (stereo unspecified) | 133 to 138
CCOC(=O)C1CN(C2CC2)c2nc(Sc3ccc(C)cc3)c(F)cc2C1=O (stereo unspecified) | 124 to 125
C#CCn1c(I)cc(C(O)C(C)(C)C)c(C)c1=O (stereo unspecified) | 105 to 106
COc1ccc(C(=NOC(C)=O)c2ccccc2F)c(O)c1Cl | 125 to 128
O=C1c2c(cccc2C(F)(F)F)-n2cnc(-c3noc(CN4Cc5ccccc5C4)n3)c2[C@@H]2CCN12 | 185 to 188
CC(C)(Cc1ccc(F)cc1)NC(=O)c1coc(C2C3CCC(O3)C2Cc2ccccc2CCC(=O)O)n1 (stereo unspecified) | 68
COC(=O)Nc1nc2cc(C(C3CC3)n3ccnc3)ccc2[nH]1 (stereo unspecified) | 218
CC(=O)OCCN1C(=O)C(NC(=O)Nc2cccc(-c3nnn[nH]3)c2)N=C(C2CCCCC2)c2cccc(C)c21 (stereo unspecified) | 165 to 168
O=C(O)Cc1ccc(CCN2CCNCC2)cc1 | 238 to 239
CC(C#N)CCCC(N(C)C)C1(c2ccc(Cl)cc2)CCC1 (stereo unspecified) | 54 to 56
CCCCOCCOc1ccc(-c2ccc(N(C)Cc3cnn(C)c3)c(C=CC(=O)O)c2)cc1 | 125 to 127
O=C1Cc2cc(F)ccc2N1 | 131 to 133
Cc1cnc2c(c1)C(=O)N(C(C)C)C2=O | 127 to 128
CCN(C(=O)C(F)(F)F)c1ccc(C(=O)Nc2ccc3ccc(OC)nc3n2)cc1 | 150
CCOC(=O)CCNC(=O)c1oc2cc(-c3ccc(Cn4c(C)nc5ccccc54)cc3)ccc2c1C | 196 to 197
O=C(c1ccccc1)c1cc(Cl)ccc1-n1c(Br)nnc1CN1C(=O)c2ccccc2C1=O | 202 to 204
Cc1ccc(C(=O)OC2CCCCC2=O)cc1 (stereo unspecified) | 68 to 69
Nc1nc(-c2ccc3c(c2)OCCO3)c(-c2ccccn2)s1 | 214
O=C(Nc1ccccc1)OC(C1CC1)C1CC1 | 92 to 94

SMILES | melting point [°C]
CCCC=NNc1cc2c(nn1)CCN(C(=O)OCC)C2 | 142 to 146
CCOP(=S)(OCC)Oc1nsc(N(C)C)n1 | 48
Cc1cc(OCc2oc(-c3ccc(C(F)(F)F)cc3)nc2C)ccc1/C=C/C(=O)O | 155 to 165
CCOC(=O)NS(=O)(=O)c1c(C(=O)OCC)c(Cl)nn1C | 82 to 85
CC1(C)CC(NC(=O)NC23CC4CC(CC(C4)C2)C3)CC(C)(C)C1=O | 234 to 238
O=C(NC(Cc1ccc(OCc2ccoc2)cc1)C(=O)O)c1cn2cc(-c3ccc(Cl)cc3)ccc2n1 (stereo unspecified) | 262
CC1=C(C(=O)OC(C)C)C(c2ccccc2F)c2c[nH]nc2N1 (stereo unspecified) | 218 to 220
CCCCCCCCCCNc1ccc(C(=O)Nc2cc(C(=O)NCCSC)ccc2OC)cc1 | 100 to 104
NC(=O)CCC(N)CO (stereo unspecified) | 92 to 95
Cn1cc(Oc2cccc(C(F)(F)F)c2)c(=O)c(-c2cccc(C(F)(F)F)c2)c1 | 93 to 95
CN1CCOC2c3cccc4[nH]cc(c34)CC21 (stereo unspecified) | 175 to 177
Cc1c(F)ncn1CC(=O)c1ccccc1 | 84.5
CC#CCOc1ccc(C(=O)NC[C@@H](C(=O)NO)N2CCN(S(C)(=O)=O)CC2)cc1 | 127
COc1cc(-c2cnc3[nH]cc(C(=O)C4(C)CCCCC4)c3n2)cc(OC)c1OC | 246 to 247
CCOC(=O)c1c(Cc2ccccc2)nc2c(C(F)(F)F)cccc2c1O | 99
Nc1nc(OCc2cccs2)ncc1F | 92 to 94
CNC(=S)NC(c1ccccc1)c1ccccc1 | 152 to 154
O=C(NCCN1CCC(O)(c2ccc(Cl)cc2)CC1)c1cccs1 | 153
CCCCn1sc2nccn2c1=O | 142 to 143
Clc1ccc(-n2nc3c(c2Br)CCCC3)cc1 | 101 to 102
CN(C)c1cc(C=O)cc(N(C)C)c1N1CCCCC1 | 114 to 116
CCOC(=O)C(CO)c1ccc(OCC)cc1 (stereo unspecified) | 35 to 36
CCOC(=O)c1cn(CCCl)c2cc(Cl)ccc2c1=O | 208 to 210
C#CC1=Cc2ccccc2Sc2ccc(S(C)(=O)=O)cc21 | 140 to 143
COC(=O)c1c(C(=O)OC)c(-c2ccccc2)n2c1Cc1ccccc1-2 | 149 to 151
Cn1c(=O)c2c(nc(Cl)n2Cc2ccccc2)n(C)c1=O | 146 to 147

SMILES | melting point [°C]
Fc1cncc(-n2ccc(Cl)n2)c1 | 77 to 82
CNC(=O)c1ccccc1Nc1nc(Nc2cc3c(cc2OC)CCN(CC(=O)N(C)C)CC3)ncc1Cl | 83 to 89
O=C(O)c1cnccc1C(=O)c1ccc(F)cc1 | 231 to 232
CN(SC1CCCCCCC1Cl)C(=O)Nc1ccc(Cl)c(Cl)c1 (stereo unspecified) | 90 to 91
SCc1cn2ccccc2n1 | 168 to 178
Nc1cc(C(=O)O)cc(SCc2ccccc2)c1Oc1ccccc1 | 159 to 161
COC(=O)C1=C(O)CCc2ccc(OC)cc21 | 48 to 48.5
Cc1ccc(N2CCOCC2)c(N=C2NCCN2CCO)c1 | 135 to 136
CC(NC(=O)OC(C)(C)C)c1cc(F)c(N)c(I)c1 (stereo unspecified) | 88 to 90
CCCC(CCC)C(=O)O/N=C(\C)[C@H]1CC[C@H]2[C@@H]3CCC4=CC(=O)CC[C@]4(C)[C@H]3CC[C@]12C | 78 to 80
COc1ccc2c(c1)N(c1ccccc1F)C(=O)C2(C)NC(=O)OCc1ccccc1 (stereo unspecified) | 149 to 151
CCCCOc1ccc(S(=O)(=O)C2(C(=O)O)CCN(Cc3ccc(Cl)c(Cl)c3)CC2)cc1 | 257
COc1ccc(C(O)C(F)(F)C(=O)SC(C)(C)C)cc1 (stereo unspecified) | 73 to 75
CC(Cl)C(=O)c1ccc2c(c1)CCC(=O)N2 (stereo unspecified) | 205 to 206
COc1cc2c(cc1F)C1(CO2)C(=O)Nc2ccccc21 (stereo unspecified) | 222 to 225
COc1cc(Nc2nccc(-c3ccc(N4CCN(CCCO)CC4)nc3)n2)cc(OC)c1OC | 116 to 117
CC(C)(C)NC(=O)Nc1nc2nc(NC3CCOCC3)ncc2cc1Oc1ccc(F)cc1F | 195 to 201
Cc1cnc(CO)c(Cl)c1N1CCOCC1 | 54 to 55
CN1C(C(=O)Nc2cccccc2=O)=C(OC(=O)C=Cc2ccccc2)c2sccc2S1(=O)=O | 167 to 170
Cc1oc(-c2ccccc2)nc1COc1ccc(COc2cncc(CC#N)c2)cc1 | 137 to 138
CCCCCNC(=O)[C@H](Cc1ccc(OCC(=O)O)c(-c2cc(O)no2)c1)NC(=O)[C@H](Cc1ccccc1)NC(=O)OC(C)(C)C | 122 to 123
CSc1cccc2nc3sccn3c(=O)c12 | 186 to 189
CC(=O)C(=Cc1ccc(S(=O)(=O)c2ccccc2)cc1)C(C)=O | 102 to 105

— a melting point compilation (Tetko et al.; mined from patent text by program, amines drawn as free bases though some values may be those of a salt)
